Source: ChEMBL document CHEMBL1141706 (Bioorg Med Chem Lett, 2008)

Target: 5-hydroxytryptamine receptor 2A (Homo sapiens, UniProt P28223)
Experiment: Displacement of [3H]ketanserin from human 5HT2A receptor

Chain of 5-hydroxytryptamine receptor 2A (P28223 whole entry): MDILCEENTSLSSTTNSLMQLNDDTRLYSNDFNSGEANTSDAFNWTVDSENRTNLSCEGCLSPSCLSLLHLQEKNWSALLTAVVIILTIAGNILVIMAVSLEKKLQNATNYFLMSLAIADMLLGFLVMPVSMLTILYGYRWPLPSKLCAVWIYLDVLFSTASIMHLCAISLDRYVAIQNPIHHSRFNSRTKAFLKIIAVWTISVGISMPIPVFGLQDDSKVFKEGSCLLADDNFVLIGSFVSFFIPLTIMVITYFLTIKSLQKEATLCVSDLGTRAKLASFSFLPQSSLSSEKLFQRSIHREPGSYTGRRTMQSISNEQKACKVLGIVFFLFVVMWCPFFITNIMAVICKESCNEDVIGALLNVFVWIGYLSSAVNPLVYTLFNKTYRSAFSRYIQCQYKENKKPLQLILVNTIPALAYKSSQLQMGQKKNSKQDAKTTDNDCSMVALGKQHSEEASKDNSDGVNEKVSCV

| Structure (SMILES) | Ki |
| --- | --- |
| COc1cccc2c1Cc1ccccc1C2CN (centres undefined) | 124 nM |
| COc1cccc2c1C(CN)c1ccccc1C2 (centres undefined) | 1160 nM |
| COc1ccc2c(c1)C(CN)c1ccccc1C2 (centres undefined) | 1370 nM |
| COc1ccc2c(c1)Cc1ccccc1C2CN (centres undefined) | 7.5 nM |
